Test results reported in ChEMBL document CHEMBL6153034, “Synthesis of dolutegravir derivatives modified by 1,2,3-triazole structure and their anti-inflammatory activity in LPS-induced BV2 cells” (Bioorg Med Chem Lett, 2025).
Active and inactive are the calls of the source. The calls are words filed in the database; no cut-off is given here.

Experiments:
[1] = tested on: BV-2; test: Antiinflammatory activity in LPS-induced mouse BV-2 cells assessed as decrease in IL-6 production preincubated for 2 hrs followed by LPS addition and measured after 24 hrs by qRT-PCR analysis; format: functional, cell-based; conditions: dose 5-10 µM, time 26.0 hrs
[2] = Acute toxicity in male Kunming mouse assessed as effect on body weight at 250 mg/kg administered via gavage for 14 days; format: organism-based; conditions: in vivo, po, 336 h, time 14 day
[3] = Acute toxicity in female Kunming mouse assessed as effect on GPT level in blood at 250 mg/kg administered via gavage by biochemical analysis; format: organism-based; conditions: in vivo, po
[4] = Acute toxicity in male Kunming mouse assessed as histopathological changes in spleen at 250 mg/kg administered via gavage by H and E staining based analysis; format: organism-based; conditions: in vivo, po
[5] = tested on: BV-2; test: Antiinflammatory activity in LPS-induced mouse BV-2 cells assessed as downregulation of iNOS protein expression level preincubated for 2 hrs followed by LPS addition and measured after 24 hrs by Western blot analysis; format: functional, cell-based; conditions: dose 5-10 µM, time 26.0 hrs
[6] = tested on: BV-2; test: Antiinflammatory activity in LPS-induced mouse BV-2 cells assessed as decrease in TNF-alpha production preincubated for 2 hrs followed by LPS addition and measured after 24 hrs by qRT-PCR analysis; format: functional, cell-based; conditions: dose 5-10 µM, time 26.0 hrs
[7] = Acute toxicity in male Kunming mouse assessed as effect on organ coefficient of liver at 250 mg/kg administered via gavage; format: organism-based; conditions: in vivo, po
[8] = tested on: BV-2; test: Antiinflammatory activity in LPS induced mouse BV-2 cells assessed as downregulation of IL-6 mRNA expression level preincubated for 2 hrs followed by LPS addition and measured after 24 hrs by qRT-PCR analysis; format: functional, cell-based; conditions: dose 5-10 µM, time 26.0 hrs
[9] = Cytotoxicity against mouse BV-2 cells assessed as cell viability at 10 uM by MTT assay relative to control; format: toxicity, cell-based; conditions: read-out: Activity
[10] = tested on: BV-2; test: Antiinflammatory activity in LPS induced mouse BV-2 cells assessed as downregulation of IL-1beta mRNA expression level preincubated for 2 hrs followed by LPS addition and measured after 24 hrs by qRT-PCR analysis; format: functional, cell-based; conditions: dose 5-10 µM, time 26.0 hrs
[11] = tested on: BV-2; test: Antiinflammatory activity in LPS-induced mouse BV-2 cells assessed as downregulation of COX2 mRNA expression level at 5 to 10 uM preincubated for 2 hrs followed by LPS addition and measured after 6 hrs by qRT-PCR analysis; format: functional, cell-based; conditions: dose 5-10 µM, time 8.0 hrs
[12] = Acute toxicity in female Kunming mouse assessed as histopathological changes in heart at 250 mg/kg administered via gavage by H and E staining based analysis; format: organism-based; conditions: in vivo, po
[13] = biological target: Signal transducer and activator of transcription 3 (Mus musculus) (UniProt P42227); test: Inhibition of STAT3 phosphorylation at Tyr705 residue in LPS-induced mouse BV-2 cells at 5 to 10 uM preincubated for 2 hrs followed by LPS addition and measured after 3 hrs by Western blot analysis; format: cell-based; conditions: dose 5-10 µM, time 5.0 hrs
[14] = tested on: BV-2; test: Inhibition of LPS-induced nuclear translocation of p-STAT3 in mouse BV-2 cells at 10 uM preincubated for 2 hrs followed LPS addition and measured after 3 hrs by DAPI staining based immunofluorescence assay; format: functional, cell-based; conditions: time 5.0 hrs
[15] = tested on: BV-2; test: Antiinflammatory activity in LPS-induced mouse BV-2 cells assessed as reduction in NO production preincubated for 2 hrs followed by LPS addition and measured after 24 hrs by Griess reagent based analysis; format: functional, cell-based; conditions: dose 5-10 µM, time 26.0 hrs
[16] = Acute toxicity in female Kunming mouse assessed as effect on organ coefficient of heart at 250 mg/kg administered via gavage; format: organism-based; conditions: in vivo, po
[17] = tested on: BV-2; test: Inhibition of LPS-induced nuclear translocation of p-STAT3 in mouse BV-2 cells at 10 uM preincubated for 2 hrs followed LPS addition and measured after 3 hrs by Western blot analysis; format: functional, cell-based; conditions: time 5.0 hrs
[18] = tested on: BV-2; test: Antiinflammatory activity in LPS-induced mouse BV-2 cells assessed as downregulation of iNOS mRNA expression level at 5 to 10 uM preincubated for 2 hrs followed by LPS addition and measured after 6 hrs by qRT-PCR analysis; format: functional, cell-based; conditions: dose 5-10 µM, time 8.0 hrs
[19] = Acute toxicity in male Kunming mouse assessed as histopathological changes in liver at 250 mg/kg administered via gavage by H and E staining based analysis; format: organism-based; conditions: in vivo, po
[20] = tested on: BV-2; test: Antiinflammatory activity in LPS induced mouse BV-2 cells assessed as NO production at 10 uM by Griess reagent based assay relative to control
[21] = Acute toxicity in female Kunming mouse assessed as histopathological changes in kidney at 250 mg/kg administered via gavage by H and E staining based analysis; format: organism-based; conditions: in vivo, po
[22] = Acute toxicity in female Kunming mouse assessed as effect on GOT level in blood at 250 mg/kg administered via gavage by biochemical analysis; format: organism-based; conditions: in vivo, po
[23] = Acute toxicity in male Kunming mouse assessed as histopathological changes in heart at 250 mg/kg administered via gavage by H and E staining based analysis; format: organism-based; conditions: in vivo, po
[24] = tested on: BV-2; test: Antiinflammatory activity in LPS-induced mouse BV-2 cells assessed as downregulation of COX-2 protein expression level preincubated for 2 hrs followed by LPS addition and measured after 24 hrs by Western blot analysis; format: functional, cell-based; conditions: dose 5-10 µM, time 26.0 hrs
[25] = Acute toxicity in female Kunming mouse assessed as effect on organ coefficient of spleen at 250 mg/kg administered via gavage; format: organism-based; conditions: in vivo, po
[26] = Acute toxicity in male Kunming mouse assessed as histopathological changes in kidney at 250 mg/kg administered via gavage by H and E staining based analysis; format: organism-based; conditions: in vivo, po
[27] = Acute toxicity in female Kunming mouse assessed as effect on organ coefficient of kidney at 250 mg/kg administered via gavage; format: organism-based; conditions: in vivo, po
[28] = Acute toxicity in male Kunming mouse assessed as effect on organ coefficient of kidney at 250 mg/kg administered via gavage; format: organism-based; conditions: in vivo, po
[29] = Acute toxicity in female Kunming mouse assessed as effect on body weight at 250 mg/kg administered via gavage for 14 days; format: organism-based; conditions: in vivo, po, 336 h, time 14 day

Signal transducer and activator of transcription 3 (Mus musculus), sequence (P42227 whole entry): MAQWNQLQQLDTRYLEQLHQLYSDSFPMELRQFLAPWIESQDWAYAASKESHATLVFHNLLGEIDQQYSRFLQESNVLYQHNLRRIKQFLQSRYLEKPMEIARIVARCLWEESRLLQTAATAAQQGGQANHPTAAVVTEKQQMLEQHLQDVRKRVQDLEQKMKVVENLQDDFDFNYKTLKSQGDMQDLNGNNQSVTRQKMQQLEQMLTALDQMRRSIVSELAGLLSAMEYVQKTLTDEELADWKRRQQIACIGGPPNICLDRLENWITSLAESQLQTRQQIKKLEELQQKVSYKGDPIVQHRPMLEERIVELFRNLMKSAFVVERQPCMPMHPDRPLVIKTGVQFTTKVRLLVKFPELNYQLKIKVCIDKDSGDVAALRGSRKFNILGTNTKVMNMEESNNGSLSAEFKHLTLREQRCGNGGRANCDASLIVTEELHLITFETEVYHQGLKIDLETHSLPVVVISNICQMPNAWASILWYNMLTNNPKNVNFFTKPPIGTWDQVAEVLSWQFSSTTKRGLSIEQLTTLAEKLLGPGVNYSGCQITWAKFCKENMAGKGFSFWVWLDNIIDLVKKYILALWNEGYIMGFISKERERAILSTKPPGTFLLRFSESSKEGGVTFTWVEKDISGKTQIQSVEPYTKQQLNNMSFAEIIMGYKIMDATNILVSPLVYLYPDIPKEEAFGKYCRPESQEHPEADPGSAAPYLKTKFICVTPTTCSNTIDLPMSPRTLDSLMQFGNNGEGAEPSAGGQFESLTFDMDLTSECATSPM

COc1c2n(cc(C(=O)Nc3cccc(-c4cn(-c5ccccc5Cl)nn4)c3)c1=O)C[C@@H]1OCC[C@@H](C)N1C2=O
Activity [1]: Dose-dependent-effect | Activity [2]: Non-toxic | Activity [3]: Non-toxic | Activity [4]: Non-toxic | Activity [5]: Dose-dependent-effect | Activity [6]: Dose-dependent-effect | Activity [7]: Non-toxic | Activity [8]: Dose-dependent-effect | viability at 10 µM [9]: 86.7% | Activity [10]: Dose-dependent-effect | Activity [11]: Active | Activity [12]: Non-toxic | inhibition [13]: Active | inhibition [14]: Active | Activity [15]: Dose-dependent-effect | Activity [16]: Non-toxic | inhibition [17]: Active | Activity [18]: Active | Activity [19]: Non-toxic | level, % of control at 10 µM [20]: 43% | Activity [21]: Non-toxic | Activity [22]: Non-toxic | Activity [23]: Non-toxic | Activity [24]: Dose-dependent-effect | Activity [25]: Non-toxic | Activity [26]: Non-toxic | Activity [27]: Non-toxic | Activity [28]: Non-toxic | Activity [29]: Non-toxic
